According to US12357679B2, “Albumin-based non-covalent complexes and methods of use thereof” (Spectral Platforms, Inc., priority 2015, dated 2025):
In brackets after ≈: the same amount, converted by molar mass.

Columns and labels:
[1] = system: Candida albicans (ATCC 90028); details: C. albicans; cited from earlier work
[2] = system: C. glabrata (ATCC 2001); details: cited from earlier work
[3] = system: most gram positive organisms; details: cited from earlier work
[4] = ingestion of a 200 mg tablet, microcrystalline suspension in oil-wax base; cited from earlier work
[5] = cited from earlier work
[6] = system: S. aureus; assay: Rapid MIC prediction with lycopene/HSA assay (UV-Vis absorbance after 30 min incubation); format: cell-based; details: Staphylococcus aureus, 0.5 h
Procedure: (§1) The present lycopene/HSA complexes were used to characterize the minimum inhibitory concentration (MIC) of antimicrobial compounds. A lycopene/HSA complex, prepared as described herein, was mixed with a series of samples that all had the same initial amount of S. aureus (200 CFU/mL of PHS), and which was incubated with a varying amount of vancomycin for 30 minutes. […] Upon the addition of the lycopene/HSA assay, aggregation of the lycopene/HSA increased in a manner that scales with S. aureus concentration (and thus on the vancomycin concentration). These changes were characterized via the changes in the UV-Vis spectrum, depicted at the bottom in FIG. 23. The chart on the top in FIG. 23 depicts the absorbance at 600 nm for these samples after another 18 hours of incubation. This absorbance was dominated by the pathogen concentration after 18 hours of growth.
(§2) FIG. 23. Rapid prediction of the MIC of S. aureus at 200 CFU/mL. […] Lycopene (1.125 mM), fucoxanthin (0.375 mM), additional vancomycin (so as to maintain the same concentration of vancomycin) and additional 3440 μl PBS (to bring the total volume to 6 ml) was added and the UV-Vis absorbance was measured. […] The chart on the top depicts the absorbance at 600 nm after 18 hour incubation at 37° C. […]

[7] = system: S. aureus; assay: MIC by absorbance at 600 nm after 18 hour incubation; format: cell-based; details: Staphylococcus aureus; absorbance at 600 nm after 18 hour incubation at 37° C.; read-out: actual MIC (break point)
Procedure: as §1, §2

For `C[C@@H]1[C@H](O)[C@@H](C)/C=C/C=C/C=C/C=C/C=C/C=C/C=C/[C@H](O[C@@H]2O[C@H](C)[C@@H](O)[C@H](N)[C@@H]2O)C[C@@H]2O[C@](O)(C[C@@H](O)C[C@@H](O)[C@H](O)CC[C@@H](O)C[C@@H](O)CC(=O)O[C@H]1C)C[C@H](O)[C@H]2C(=O)O` [Amphotericin B], the “previously reported minimum inhibitory concentration MIC” value [1] is listed as “about 0.5 μg/mL” and the “previously reported minimum inhibitory concentration MIC” value [2] is listed as “about 0.5 μg/mL”.
For `CC(C)/N=c1\cc2n(-c3ccc(Cl)cc3)c3ccccc3nc-2cc1Nc1ccc(Cl)cc1` [Clofazimine], the MIC [3] is given as “about 0.4 μg/mL”, the peak plasma concentration [4] is given as 0.41 µg/mL and the water solubility [5] is given as “not water soluble”.
With `CN[C@H](CC(C)C)C(=O)N[C@H]1C(=O)N[C@@H](CC(N)=O)C(=O)N[C@H]2C(=O)N[C@H]3C(=O)N[C@H](C(=O)N[C@H](C(=O)O)c4cc(O)cc(O)c4-c4cc3ccc4O)[C@H](O)c3ccc(c(Cl)c3)Oc3cc2cc(c3O[C@@H]2O[C@H](CO)[C@@H](O)[C@H](O)[C@H]2O[C@H]2C[C@](C)(N)[C@H](O)[C@H](C)O2)Oc2ccc(cc2Cl)[C@H]1O` [vancomycin] the MIC ([6]; read-out: predicted MIC) was ~0.6 µg/mL (≈ 0.414 µM), the MIC ([6]; read-out: predicted MIC (break point)) was 200 µg/mL (≈ 138 µM) and the MIC [7] was 0.2 µg/mL (≈ 0.138 µM).
